# Test results taken from patent publication US11840686B2, “Modulation of prekallikrein (PKK) expression” (Ionis Pharmaceuticals, Inc., priority 2013, dated 2023).
# Strand notation (5' to 3'): a small letter for the sugar, then the base; units joined by * are phosphorothioate-linked, units joined directly phosphodiester-linked; [ ] holds rarer units or linkages, { } end groups; capitals alone tell only the bases. e = 2'-O-(2-methoxyethyl) (MOE); [5mC] = 5-methylcytosine; d = 2'-deoxy (DNA)
# Tested on: human PKK mRNA
# Assay: Antisense inhibition of human PKK mRNA in HepaRG cells, 5,000 nM (Example 2)
# Type: cell-based
# Method in brief: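 Chimeric MOE gapmers with full phosphorothioate backbones were tested once at 5,000 nM in electroporated HepaRG cells. After about 24 hours, quantitative PCR measured PKK mRNA relative to untreated control cells.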
# [1] = HepaRG cells, electroporation, 5,000 nM antisense oligonucleotide, approx. 24 hours, primer probe set RTS3454, relative to untreated control cells, Table 12
# [2] = Table 9 experiment, HepaRG cells, 20,000 cells per well, electroporation with 5,000 nM antisense oligonucleotide, approx. 24 hours, PKK mRNA by RT-PCR (RTS3454), relative to untreated control cells
# [3] = Table 10 experiment, HepaRG cells, 20,000 cells per well, electroporation with 5,000 nM antisense oligonucleotide, approx. 24 hours, PKK mRNA by RT-PCR (RTS3454), relative to untreated control cells
# [4] = HepaRG cells, electroporation, 5,000 nM antisense oligonucleotide, approx. 24 hours, primer probe set RTS3454, relative to untreated control cells, Table 11
# [5] = human PKK mRNA, HepaRG cells, 5-10-5 motif oligonucleotides targeting SEQ ID NO: 1 and 10
# [6] = Table 7, HepaRG cells, electroporation with 5,000 nM antisense oligonucleotide, approx. 24 hours, PKK mRNA by RT-PCR (RTS3454), relative to untreated control cells
# [7] = human PKK mRNA in HepaRG cells, 5-10-5 gapmers, Table 14
# [8] = HepaRG cells, electroporation with 5,000 nM antisense oligonucleotide, approximately 24 hours, PKK mRNA by RT-PCR (RTS3454), relative to untreated control cells, Table 6 experiment
# [9] = HepaRG cells, 5,000 nM antisense oligonucleotide, 5-10-5 gapmers, Table 16
# [10] = human PKK mRNA, HepaRG cells, 5,000 nM antisense oligonucleotide, Table 18
substance,measurement,setting,value
546499 (eT*e[5mC]*e[5mC]*eA*eT*dG*d[5mC]*dA*dT*dA*d[5mC]*dT*d[5mC]*dG*d[5mC]*e[5mC]*eT*eT*eT*eG; antisense) [compound 546499],% inhibition,[1],20%
547552 (antisense e[5mC]*eT*e[5mC]*e[5mC]*e[5mC]*d[5mC]*dA*dT*dG*d[5mC]*dA*dT*dA*d[5mC]*dT*e[5mC]*eG*e[5mC]*e[5mC]*eT) [compound 547552],% inhibition,[1],53%
547481 (antisense e[5mC]*e[5mC]*eT*eT*e[5mC]*dT*dT*dT*dA*dT*dA*dG*d[5mC]*d[5mC]*dA*eG*e[5mC]*eA*e[5mC]*eA) [compound 547481],% inhibition,[2],71%
same,% inhibition,[3],77%
546381 (antisense eG*eA*eA*eG*eA*dT*dG*d[5mC]*d[5mC]*dA*d[5mC]*dT*d[5mC]*dT*d[5mC]*e[5mC]*eA*eT*eG*e[5mC]) [compound 546381],% inhibition,[4],73%
547546 (antisense e[5mC]*eA*eT*eA*e[5mC]*dT*d[5mC]*dG*d[5mC]*d[5mC]*dT*dT*dT*dG*dT*eG*eA*eT*eG*e[5mC]) [compound 547546],% inhibition,[1],11%
546895 (eT*eA*eT*e[5mC]*eA*d[5mC]*dT*dG*dT*d[5mC]*d[5mC]*dT*dA*dT*dG*eT*e[5mC]*eA*e[5mC]*eT; antisense) [compound 546895],% inhibition,[5],77%
546249 (e[5mC]*eT*eT*e[5mC]*eT*d[5mC]*d[5mC]*dT*d[5mC]*d[5mC]*dA*dA*dA*dG*dT*e[5mC]*eA*eA*e[5mC]*eT; antisense) [compound 546249],% inhibition,[6],68%
547606 (antisense eA*eA*e[5mC]*eA*eA*dT*dA*dT*d[5mC]*dA*d[5mC]*dT*dG*dT*dA*e[5mC]*e[5mC]*eT*eA*eT) [compound 547606],% inhibition,[7],43%
547324 (antisense e[5mC]*eA*eT*eT*eG*d[5mC]*dT*dT*d[5mC]*dA*dA*dG*dG*dA*dA*eT*eG*eT*e[5mC]*e[5mC]) [compound 547324],% inhibition,[8],76%
547709 (antisense eA*eG*e[5mC]*e[5mC]*e[5mC]*dA*dA*dT*dG*dT*d[5mC]*d[5mC]*dT*dA*dA*e[5mC]*e[5mC]*eT*eG*eT) [compound 547709],% inhibition,[9],76%
546687 (eT*eG*eA*eG*eA*d[5mC]*d[5mC]*dT*d[5mC]*d[5mC]*dA*dG*dA*d[5mC]*dT*eA*e[5mC]*eT*eG*eT; antisense) [compound 546687],% inhibition,[1],76%
546883 (e[5mC]*eT*eA*eG*eT*dT*dT*d[5mC]*d[5mC]*dT*dA*dT*dA*dA*d[5mC]*eA*eG*eT*eA*eT; antisense) [compound 546883],% inhibition,[7],19%
547669 (eA*e[5mC]*eA*eA*e[5mC]*dT*dA*dT*dA*dA*d[5mC]*dA*dG*dT*dA*eT*e[5mC]*eA*e[5mC]*eT; antisense) [compound 547669],% inhibition,[5],0%
546250 (e[5mC]*eA*eT*eT*e[5mC]*dA*dA*dT*dT*d[5mC]*dT*dT*d[5mC]*dT*d[5mC]*e[5mC]*eT*e[5mC]*e[5mC]*eA; antisense) [compound 546250],% inhibition,[6],65%
546912 (eA*e[5mC]*eA*eT*e[5mC]*dA*d[5mC]*dT*dG*dT*d[5mC]*d[5mC]*dT*dA*dT*eA*eA*e[5mC]*eT*eA; antisense) [compound 546912],% inhibition,[9],26%
547715 (eG*eG*eT*e[5mC]*eA*dG*dA*dA*dG*dG*d[5mC]*d[5mC]*dT*d[5mC]*dT*eT*eA*eT*eT*e[5mC]; antisense) [compound 547715],% inhibition,[9],21%
546901 (eA*e[5mC]*eT*eG*eT*d[5mC]*d[5mC]*dT*dA*dT*dA*dA*d[5mC]*dT*dA*eT*eA*eA*e[5mC]*eA; antisense) [compound 546901],% inhibition,[5],56%
548739 (DNA eG*eT*eA*e[5mC]*dT*dA*dG*dT*dT*dT*d[5mC]*d[5mC]*dT*eA*eT*eA*eA; antisense) [compound 548739],% inhibition,[10],0%
548714 (DNA eT*e[5mC]*eA*d[5mC]*dT*dG*dT*dA*d[5mC]*dT*dA*dG*dT*eT*eT*e[5mC]; antisense) [compound 548714],% inhibition,"HepaRG cells, 5,000 nM antisense oligonucleotide, human PKK mRNA, Table 18",15%
546239 (eG*eT*eT*e[5mC]*eT*dT*dT*dT*dG*d[5mC]*dA*dG*dG*dT*dT*eA*eA*eA*eA*eG; antisense) [compound 546239],% inhibition,[6],47%
546353 (antisense e[5mC]*eT*e[5mC]*eA*eG*d[5mC]*dG*dA*d[5mC]*dT*dT*dT*dG*dG*dT*eG*eT*eA*eG*eA) [compound 546353],% inhibition,[4],55%
547629 (antisense eA*e[5mC]*eT*e[5mC]*eT*dA*d[5mC]*d[5mC]*dT*dA*dT*dA*dA*d[5mC]*dT*e[5mC]*eT*eA*eA*e[5mC]) [compound 547629],% inhibition,[5],0%
547653 (eA*eT*e[5mC]*eA*e[5mC]*dT*dG*dT*dA*d[5mC]*d[5mC]*dT*dA*dT*dA*eA*e[5mC]*eA*eG*eT; antisense) [compound 547653],% inhibition,[5],57%
546444 (e[5mC]*e[5mC]*eA*eG*eA*dA*dT*d[5mC]*dA*dT*dG*d[5mC]*d[5mC]*dT*dT*eG*eT*eG*eG*eG; antisense) [compound 546444],% inhibition,[1],61%
547527 (antisense e[5mC]*eT*e[5mC]*eA*eG*dT*dT*dG*d[5mC]*dG*dA*d[5mC]*d[5mC]*dT*d[5mC]*eG*e[5mC]*eA*eT*eT) [compound 547527],% inhibition,[4],58%
547401 (eG*eA*eA*eT*eG*dG*d[5mC]*dA*dG*dG*dG*dT*dT*d[5mC]*dA*eG*eG*eT*eA*eA; antisense) [compound 547401],% inhibition,[6],22%
547716 (e[5mC]*e[5mC]*eA*eT*e[5mC]*dT*dG*dT*d[5mC]*d[5mC]*d[5mC]*d[5mC]*dT*d[5mC]*dA*eA*eT*e[5mC]*e[5mC]*e[5mC]; antisense) [compound 547716],% inhibition,[9],9%
547472 (antisense eT*e[5mC]*eA*e[5mC]*e[5mC]*dT*dT*dT*d[5mC]*dT*d[5mC]*d[5mC]*dT*dT*d[5mC]*eG*eA*eG*eA*eA) [compound 547472],% inhibition,[2],44%
same,% inhibition,[3],42%
547350 (antisense eG*eG*e[5mC]*eA*eT*dT*d[5mC]*dT*dT*d[5mC]*dA*dA*d[5mC]*dA*d[5mC]*eT*eG*e[5mC]*eT*eA) [compound 547350],% inhibition,[8],96%
546323 (antisense eG*eT*eG*e[5mC]*eT*dT*dG*dT*dG*dT*d[5mC]*dA*d[5mC]*d[5mC]*dT*eT*eT*eG*eG*eA) [compound 546323],% inhibition,[2],94%
same,% inhibition,[3],80%
547284 (antisense eA*eA*eA*eT*eG*dA*dA*dA*dT*dA*dA*dG*dT*dT*dG*e[5mC]*eT*eT*eG*e[5mC]) [compound 547284],% inhibition,"HepaRG cells, electroporation with 5,000 nM antisense oligonucleotide, approximately 24 hours, PKK mRNA by RT-PCR (RTS3454), relative to untreated control cells, Table 5 experiment",26%
546237 (e[5mC]*eA*eG*eG*eT*dT*dA*dA*dA*dA*dG*dG*d[5mC]*dT*dA*eT*eA*eT*e[5mC]*e[5mC]; antisense) [compound 546237],% inhibition,[6],64%
547559 (eG*eA*eG*e[5mC]*eA*d[5mC]*dA*dG*dA*dT*d[5mC]*dT*d[5mC]*dT*dT*e[5mC]*eA*eA*eG*eT; antisense) [compound 547559],% inhibition,"Table 13, human PKK mRNA in HepaRG cells, 5-10-5 gapmers",69%
547397 (eG*eT*eT*e[5mC]*eA*dG*dG*dT*dA*dA*dA*dG*dT*dT*d[5mC]*eT*eT*eT*eT*eG; antisense) [compound 547397],% inhibition,[6],27%
547544 (antisense eT*e[5mC]*eG*e[5mC]*e[5mC]*dT*dT*dT*dG*dT*dG*dA*dT*dG*d[5mC]*eG*eA*eT*eT*eT) [compound 547544],% inhibition,[1],15%
546242 (eG*eG*eG*eT*eT*d[5mC]*dA*dG*dG*dT*dA*dA*dA*dG*dT*eT*e[5mC]*eT*eT*eT; antisense) [compound 546242],% inhibition,[6],8%
547362 (e[5mC]*eA*eA*e[5mC]*eA*dT*d[5mC]*d[5mC]*dA*d[5mC]*dA*dT*d[5mC]*dT*dG*eA*eG*eA*eA*e[5mC]; antisense) [compound 547362],% inhibition,[8],47%
548773 (antisense e[5mC]*eT*eA*eT*dA*dA*d[5mC]*dA*dG*dT*dA*dT*d[5mC]*eA*e[5mC]*eT*eG) [compound 548773],% inhibition,[10],0%
547702 (antisense eA*e[5mC]*eA*eT*e[5mC]*dA*d[5mC]*dT*dG*dT*dA*d[5mC]*d[5mC]*dT*dA*eT*eA*eA*e[5mC]*eT) [compound 547702],% inhibition,[9],44%
